Test results from US8455397B2, “Penoxsulam as a turfgrass, vineyard and orchard floor herbicide” (Dow AgroSciences, LLC, priority 2005, dated 2013).

Tested on: Hydrocotyle species (HYDSS)
Experiment: Post emergent synergy field study, penoxsulam + dicamba granule
Format: in vivo
Details: 112 gai/Ha on 30-3-4 granule fertilizer, average of 2 studies 4 weeks after application
Description: Field and greenhouse studies were conducted to determine if there may be any synergistic response when penoxsulam is combined with other herbicides for post emergence broadleaf or sedge control. Field studies were conducted in established turfgrass sites containing a natural population of target broadleaf weeds. Replicated trials, containing a minimum of three replications and having individual plots ranging in size from 25 to 50 ft. sq (2.3 to 4.6 square meters), were initiated in the late spring when turf and weeds were actively growing. Granule treatments were uniformly applied to individual plots using a common hand-shaker method. Applications were made in the early morning when dew was present. Natural rainfall and supplemental irrigation were used to maintain healthy turf and active weed growth throughout the study period. Control of each weed species in the study site was made at 2, 4 and 8 weeks after treatment. Control was determined visually by comparing treated and untreated weeds and scored on a 0 to 100 percent scale where 0 corresponds to no control and 100 corresponds to complete kill.
Component A was penoxsulam at 0.02 or 0.04 lb ai/A. Component B was dicamba at 0.1 lb ai/A. Individual products and mixture were applied on a 30-3-4 granule fertilizer formulated to deliver 116 pounds fertilizer per acre (129 kg per hectare). Loadings for the individual component on the fertilizer were: • Penoxsulam 22.4 gai/Ha (0.02 lb ai/A)=0.017% • Penoxsulam 44.9 gai/Ha (0.04 lb ai/A)=0.034% • Dicamba 112 gae/Ha (0.1 lb ai/A)=0.086%
For combinations the same loadings were applied to the same granule carrier and applied as a single product to test area.

## COc1c(Cl)ccc(Cl)c1C(=O)O [Dicamba, dicamba, reference compound]
  % Control Component B: 29%
